Active and inactive are the calls of the source.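 The calls were made as follows: active = survival at least 30 percentage points above the stressed untreated control at any dose of the stressor; inactive = the rest.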
Test system: SW-1 melanoma, thapsigargin-induced death, ATPlite luminescence, 24 h
Assay: ER stress cell death suppression in melanoma – SW-1 melanoma, ATP content luminescence, SAR follow-up (AID 1355)
Conditions: at 25 µM, stronger effect = higher value
[1] = measured here: thapsigargin 7.5 uM
[2] = measured here: thapsigargin 15 uM

Compound	survival	survival [1] [%]	survival [2] [%]
COc1ccc(C2CC(=O)C3=C(C2)Nc2ccccc2NC3c2cccc(C(F)(F)F)c2)cc1OC (stereo not drawn)	86%	75	8
CSc1ccc(C2Nc3ccccc3NC3=C2C(=O)CC(c2ccccc2)C3)cc1 (stereo not drawn)	74%	72	23
CCCOc1ccc(C2Nc3ccccc3NC3=C2C(=O)CC(c2ccc(OC)c(OC)c2)C3)cc1 (stereo not drawn)	83%	71	3
CCOc1cc(C2Nc3ccccc3NC3=C2C(=O)CC(c2ccc(OC)cc2)C3)cc(Cl)c1O (stereo not drawn)	30% (inactive)	71	2
COc1ccc(C2CC(=O)C3=C(C2)Nc2ccccc2NC3c2cccc(Br)c2)cc1OC (stereo not drawn)	67%	72	7
COc1ccc(C2CC(=O)C3=C(C2)Nc2ccccc2NC3c2cccc(Oc3ccccc3)c2)cc1OC (stereo not drawn)	84%	77	18
COc1ccc(C2CC(=O)C3=C(C2)Nc2ccccc2NC3c2cc(C)ccc2C)cc1 (stereo not drawn)	83%	72	9
O=C1CC(c2ccccc2)CC2=C1C(c1c(F)cccc1Cl)Nc1ccccc1N2 (stereo not drawn)	73%	72	3
CC1(C)CC(=O)C2=C(C1)Nc1ccccc1NC2c1ccc(-c2ccccc2)cc1 (stereo not drawn)	66%	69	7
COc1ccc(C2CC(=O)C3=C(C2)Nc2ccccc2NC3c2ccccc2C(F)(F)F)cc1OC (stereo not drawn)	98%	89	7
CCOc1cccc(C2Nc3ccccc3NC3=C2C(=O)CC(c2ccc(OC)cc2)C3)c1 (stereo not drawn)	33% (inactive)	75	3

— PubChem BioAssay AID1355 (Sanford-Burnham Center for Chemical Genomics, 2008)
